From patent US8618152B2, “Inhibitors of serine proteases, particularly HCV NS3-NS4A proteases” (Vertex Pharmaceuticals Incorporated, priority 2003, dated 2013)
Read-outs that look alike come from different tables or passages of the source. *1 amine or outer side, *2 acyl side, *3 side chain or, on linkers, in order; H or OH if unused. Where a SMILES comes first, the peptide text is derived from it. [ ]: non-standard residue; d: D form. The star is where a group is joined. Pro(3S-Et) = CC[C@H]1CCN[C@@H]1C(=O)O; Pyrazinecarbonyl = O=C(c1cnccn1)*; X1 = CCCC(N[*:1])C(=O)C(=O)[*:2]; Chg = N[C@H](C(=O)O)C1CCCCC1; Tle = CC(C)(C)[C@H](N)C(=O)O

What was measured:
[1] = target: HCV NS3-NS4A protease (tNS3 with KK4A) (Hepatitis C virus genotype 1a, UniProt P27958); assay: HCV Ki assay (HPLC microbore separation of 5AB substrate and products); type: biochemical
Experimental: HPLC Microbore Method for Separation of 5AB Substrate and Products
Substrate: NH2-Glu-Asp-Val-Val-(alpha)Abu-Cys-Ser-Met-Ser-Tyr-COOH
A stock solution of 20 mM 5AB (or concentration of your choice) was made in DMSO w/0.2M DTT. This was stored in aliquots at −20 C.
Buffer: 50 mM HEPES, pH 7.8; 20% glycerol; 100 mM NaCl
Total assay volume was 100 μL
The buffer, KK4A, DTT, and tNS3 were combined; distributed 78 μL each into wells of 96 well plate. This was incubated at 30 C for ˜5-10 min.
2.5 μL of appropriate concentration of test compound was dissolved in DMSO (DMSO only for control) and added to each well. This was incubated at room temperature for 15 min.
Initiated reaction by addition of 20 μL of 250 μM 5AB substrate (25 μM concentration is equivalent or slightly lower than the Km for 5AB).
Incubated for 20 min at 30 C.
Terminated reaction by addition of 25 μL of 10% TFA
Transferred 120 μL aliquots to HPLC vials
Separated SMSY product from substrate and KK4A by the following method:
Microbore Separation Method:
Instrumentation: Agilent 1100
Column thermostated chamber G1316A
Diode array detector G1315A
Solvent A=HPLC grade water+0.1% TFA
Solvent B=HPLC grade acetonitrile+0.1% TFA
Stop time: 17 min Post-run time: 10 min.

[2] = test system: Cells containing hepatitis C virus (HCV) replicon; assay: HCV replicon cell assay; type: cell-based
Experimental: HCV Replicon Cell Assay Protocol
Cells containing hepatitis C virus (HCV) replicon were maintained in DMEM containing 10% fetal bovine serum (FBS), 0.25 mg per ml of G418, with appropriate supplements (media A).
On day 1, replicon cell monolayer was treated with a trypsin:EDTA mixture, removed, and then media A was diluted into a final concentration of 100,000 cells per ml with. 10,000 cells in 100 ul were plated into each well of a 96-well tissue culture plate, and cultured overnight in a tissue culture incubator at 37° C.
On day 2, compounds (in 100% DMSO) were serially diluted into DMEM containing 2% FBS, 0.5% DMSO, with appropriate supplements (media B). The final concentration of DMSO was maintained at 0.5% throughout the dilution series.
Media on the replicon cell monolayer was removed, and then media B containing various concentrations of compounds was added. Media B without any compound was added to other wells as no compound controls.
Cells were incubated with compound or 0.5% DMSO in media B for 48 hours in a tissue culture incubator at 37° C. At the end of the 48-hour incubation, the media was removed, and the replicon cell monolayer was washed once with PBS and stored at −80° C. prior to RNA extraction.
Culture plates with treated replicon cell monolayers were thawed, and a fixed amount of another RNA virus, such as Bovine Viral Diarrhea Virus (BVDV) was added to cells in each well. RNA extraction reagents (such as reagents from RNeasy kits) were added to the cells immediately to avoid degradation of RNA. Total RNA was extracted according the instruction of manufacturer with modification to improve extraction efficiency and consistency. Finally, total cellular RNA, including HCV replicon RNA, was eluted and stored at −80° C. until further processing.
A Taqman real-time RT-PCR quantification assay was set up with two sets of specific primers and probe. One was for HCV and the other was for BVDV. Total RNA extractants from treated HCV replicon cells was added to the PCR reactions for quantification of both HCV and BVDV RNA in the same PCR well. Experimental failure was flagged and rejected based on the level of BVDV RNA in each well. The level of HCV RNA in each well was calculated according to a standard curve run in the same PCR plate. The percentage of inhibition or decrease of HCV RNA level due to compound treatment was calculated using the DMSO or no compound control as 0% of inhibition. The IC50 (concentration at which 50% inhibition of HCV RNA level is observed) was calculated from the titration curve of any given compound.

[3] = 25 nM tNS3, 25 μM KK4A, 25 μM 5AB substrate, 20 min at 30 C, read-out: Ki
[4] = 50% inhibition of HCV RNA level, 48-hour incubation, Taqman real-time RT-PCR, read-out: IC50

Sequence of HCV NS3-NS4A protease (tNS3 with KK4A) (P27958 1027-1208): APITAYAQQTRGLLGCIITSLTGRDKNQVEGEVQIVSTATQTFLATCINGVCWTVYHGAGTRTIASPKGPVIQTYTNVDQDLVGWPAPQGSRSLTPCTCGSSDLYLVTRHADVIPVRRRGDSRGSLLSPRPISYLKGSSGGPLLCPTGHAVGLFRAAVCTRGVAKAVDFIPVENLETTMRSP

**Q.** Which Ki [1, 3] does the source give for `CCC[C@H](NC(=O)[C@@H]1[C@@H](C2CCCCC2)CCN1C(=O)[C@@H](NC(=O)[C@@H](NC(=O)c1cnccn1)C1CCCCC1)C(C)(C)C)C(=O)C(=O)NC1CC1` [Compound 66] here?
**A.** 100 to 500 nM

**Q.** And the IC50 [2, 4]?
**A.** 500 to 1000 nM

**Q.** For `CCC[C@H](NC(=O)[C@@H]1[C@@H](C2CCCCC2)CCN1C(=O)[C@@H](NC(=O)[C@@H](NC(=O)c1cnccn1)C1CCCCC1)C(C)(C)C)C(=O)C(=O)N[C@@H](C)C1CCCCC1` [Compound 67], which Ki [1, 3] is on record?
**A.** > 500 nM

**Q.** What about the IC50 [2, 4] of the same molecule?
**A.** > 1000 nM

**Q.** How did the Ki [1, 3] turn out when `CCC[C@H](NC(=O)[C@@H]1[C@@H](C(C)C)CCN1C(=O)[C@@H](NC(=O)[C@@H](NC(=O)c1ncc[nH]1)C1CCCCC1)C(C)(C)C)C(=O)C(=O)NC1CC1` [Compound 69] was run?
**A.** < 100 nM

**Q.** What about the IC50 [2, 4] of the same molecule?
**A.** < 500 nM

**Q.** How did the Ki [1, 3] turn out when `CCC[C@H](NC(=O)[C@@H]1[C@@H](C(C)C)CCN1C(=O)[C@@H](NC(=O)[C@@H](NC(=O)c1cnccn1)C1CCCCC1)C(C)C)C(=O)C(=O)NC1CC1` [Compound 64] was run?
**A.** 100 to 500 nM

**Q.** What about the IC50 ([2]; 48 h) of the same molecule?
**A.** > 1000 nM

**Q.** Which Ki [1, 3] does the source give for `CCCC(NC(=O)[C@@H]1[C@@H](C2CCCCC2)CCN1C(=O)[C@@H](NC(=O)[C@@H](NC(=O)c1cnccn1)C1CCCCC1)C(C)C)C(=O)C(=O)NC1CC1` (stereo partly shown) [Compound 54] here?
**A.** 100 to 500 nM

**Q.** And the IC50 ([2]; 48 h)?
**A.** > 1000 nM

**Q.** For `CCCC(NC(=O)[C@@H]1[C@@H](C2CCCCC2)CCN1C(=O)[C@@H](NC(=O)[C@@H](NC(=O)c1cnccn1)C1CCCCC1)C(C)(C)C)C(=O)C(=O)N[C@@H](C)c1ccccc1` (stereo partly shown) [Compound 62], which Ki [1, 3] is on record?
**A.** < 100 nM

**Q.** What about the IC50 [2, 4] of the same molecule?
**A.** 500 to 1000 nM

**Q.** With `CCCC(NC(=O)[C@@H]1[C@@H](C2CCCCC2)CCN1C(=O)[C@@H](NC(=O)[C@@H](NC(=O)C1CSC(=O)N1)C1CCCCC1)C(C)(C)C)C(=O)C(=O)N[C@@H](C)c1ccccc1` (stereo partly shown) [Compound 63] as the molecule, how does the Ki [1] read?
**A.** < 100 nM

**Q.** And the IC50 [2, 4]?
**A.** 500 to 1000 nM

**Q.** `CCC[C@H](NC(=O)[C@@H]1[C@@H](CC)[C@@H](C)CN1C(=O)[C@@H](NC(=O)[C@@H](NC(=O)c1cnccn1)C1CCCCC1)C(C)(C)C)C(=O)C(=O)NC1CC1` [Compound 76] was tested. Which Ki [1, 3] did it give?
**A.** 100 to 500 nM

**Q.** What about the IC50 [2, 4] of the same molecule?
**A.** > 1000 nM

**Q.** Which results are given for `CCC[C@H](NC(=O)[C@@H]1[C@@H](C(C)(C)C)CCN1C(=O)[C@@H](NC(=O)[C@@H](NC(=O)c1cnccn1)C1CCCCC1)C(C)(C)C)C(=O)C(=O)NC1CC1` [Compound 73]?
**A.** Ki [1, 3]: 100 to 500 nM; IC50 [2, 4]: > 1000 nM

**Q.** Which results are given for `CCC[C@H](NC(=O)[C@@H]1[C@@H](C2CCCC2)CCN1C(=O)[C@@H](NC(=O)[C@@H](NC(=O)c1cnccn1)C1CCCCC1)C(C)(C)C)C(=O)C(=O)NC1CC1` [Compound 75]?
**A.** Ki [1, 3]: 100 to 500 nM; IC50 [2, 4]: > 1000 nM

**Q.** With `CC[C@H]1CCN(C(=O)[C@@H](NC(=O)[C@@H](NC(=O)c2cnccn2)C2CCCCC2)C(C)(C)C)[C@@H]1C(=O)NC(CC(F)F)C(=O)C(=O)NC1CC1` (stereo partly shown) [Compound 52] as the molecule, how does the Ki [1, 3] read?
**A.** < 100 nM

**Q.** What about the IC50 [2, 4] of the same molecule?
**A.** < 500 nM

**Q.** Which Ki [1, 3] does the source give for `CCCC(NC(=O)[C@@H]1[C@@H](CC)CCN1C(=O)[C@@H](NC(=O)[C@@H](NC(=O)c1cnccn1)C1CCCCC1)C(C)(C)C)C(=O)C(=O)NC1CC1` (stereo partly shown) [Compound 39] here?
**A.** < 100 nM

**Q.** What about the IC50 [2, 4] of the same molecule?
**A.** 500 to 1000 nM

**Q.** For `CCC[C@H](NC(=O)[C@@H]1[C@@H](C2CCCCC2)CCN1C(=O)[C@@H](NC(=O)[C@@H](NC(=O)c1ncc[nH]1)C1CCCCC1)C(C)(C)C)C(=O)C(=O)NC1CC1` [Compound 68], which Ki [1, 3] is on record?
**A.** < 100 nM

**Q.** What about the IC50 [2, 4] of the same molecule?
**A.** < 500 nM

**Q.** With `CCCC(NC(=O)[C@@H]1[C@@H](CC)CCN1C(=O)[C@@H](NC(=O)[C@@H](NC(=O)c1cnccn1)C1CCCCC1)C(C)(C)C)C(=O)C(=O)N[C@@H](Cc1ccccc1)C(=O)O` (stereo partly drawn) [Compound 41] (Pyrazinecarbonyl-[Chg][Tle][Pro(3S-Et)][X1]F-OH) as the molecule, how does the Ki [1, 3] read?
**A.** > 500 nM

**Q.** What about the IC50 ([2]; 48 h) of the same molecule?
**A.** < 500 nM

**Q.** `CCC[C@H](NC(=O)[C@@H]1[C@@H](C(CC)CC)CCN1C(=O)[C@@H](NC(=O)[C@@H](NC(=O)c1cnccn1)C1CCCCC1)C(C)(C)C)C(=O)C(=O)NC1CC1` [Compound 74] was tested. Which Ki [1, 3] did it give?
**A.** 100 to 500 nM

**Q.** And the IC50 [2, 4]?
**A.** > 1000 nM

**Q.** With `CCCC(NC(=O)[C@@H]1[C@@H](C2CCCCC2)CCN1C(=O)[C@@H](NC(=O)[C@@H](NC(=O)c1cnccn1)C1CCCCC1)C(C)(C)C)C(=O)C(=O)NC1CC1` (stereo partly shown) [Compound 55] as the molecule, how does the Ki [1, 3] read?
**A.** < 100 nM

**Q.** What about the IC50 [2, 4] of the same molecule?
**A.** 500 to 1000 nM

**Q.** Which Ki [1, 3] does the source give for `CCC[C@H](NC(=O)[C@@H]1[C@@H](Cc2ccccc2)CCN1C(=O)[C@@H](NC(=O)[C@@H](NC(=O)c1cnccn1)C1CCCCC1)C(C)(C)C)C(=O)C(=O)NC1CC1` [Compound 77] here?
**A.** 100 to 500 nM

**Q.** And the IC50 [2, 4]?
**A.** > 1000 nM
